Reference: patent US9969699B2, “Cancer cell growth inhibitor, anticancer agent, and method for screening same, as well as novel compound” (Microbial Chemistry Research Foundation, priority 2014, dated 2018)

How the values were obtained:
[1] = system: NIH3T3/EGFR vIII cells; assay: 3D cell culture step (environment without adhesion scaffold), proliferation of NIH3T3/EGFR vIII cells; assay type: cell-based, mouse
[2] = system: NIH3T3/EGFRWT cells; assay: 3D cell culture step, NIH3T3/EGFRWT cells in EGF-including medium; assay type: cell-based, mouse
Protocol: (§1) After the 3 days of culture, the number of viable cells was counted by […]-GLO (trademark) Luminescent Cell Viability Assay (available from Promega), which was a method for quantitating ATP in viable cells. A cell proliferation inhibition rate in the 3D cell culture step was calculated according to (Expression 3) below. Cell proliferation inhibition rate(%)=(1−X/Y)×100 (Expression 3)
(§2) In the (Expression 3), X denotes the number of viable cells when the test substance was added, and Y denotes the number of viable cells when the test substance was not added.

[3] = system: U251 cells; assay: 3D cell culture step, EGFR vIII gene non-expressing brain tumor cells U251; assay type: cell-based; details: Test Example 3, U251 cells
Protocol: (§3) The following 3 brain tumor cells were used as the EGFR vIII gene non-expressing cells. • U251 cells (available from ATCC) • U87MG cells (available from ATCC) • KS-1 cells (available from ATCC) <3D Cell Culture Step>
as §1, §2

[4] = system: U87MG cells; assay: 3D cell culture step, EGFR vIII gene non-expressing brain tumor cells U87MG; assay type: cell-based; details: Test Example 3, U87MG cells
Protocol: as §3, §1, §2

[5] = system: KS-1 cells; assay: 3D cell culture step, EGFR vIII gene non-expressing brain tumor cells KS-1; assay type: cell-based; details: Test Example 3, KS-1 cells
Protocol: as §3, §1, §2

[6] = Acute toxicity test, intraperitoneal administration; assay type: in vivo, ICR mice; details: intraperitoneally once; for Organ weight Heart / Organ weight Kidney (Left) / Organ weight Kidney (Right) / Organ weight Liver / Organ weight Lung / Organ weight Spleen / Organ weight Thymus: two weeks after
Source text: Two-weeks after the compounds represented by the Structural Formula (1) at the above concentrations were intraperitoneally administered, the mice were dissected and organs thereof were weighed.
Two-weeks after the compounds represented by the Structural Formula (8) at the above concentrations were intraperitoneally administered, the mice were dissected and organs thereof were weighed.

[7] = Acute toxicity test, tail vein administration; assay type: in vivo, ICR mice; details: tail vein once; for Organ weight Heart / Organ weight Kidney (Right) / Organ weight Liver / Organ weight Lung / Organ weight Spleen / Organ weight Thymus / Organ weight Kidney (Left): two weeks after
Protocol: Two-weeks after the compounds represented by the Structural Formula (1) at the above concentrations were administered to the tail veins, the mice were dissected and organs thereof were weighed.

[8] = Solubility (remark in acute toxicity test); assay type: physicochemical
[9] = system: NIH3T3/EGFR vIII cell-transplanted tumor
[10] = system: mDia; details: in vitro, reported in NPL 1; cited from earlier work
[11] = 30 mg/kg intraperitoneally once a day, day 1 to day 17

In the case of `Nc1ccc(Br)cc1-c1nc2ccccc2[nH]c1=O` [Structural Formula (1), 3-(2-amino-5-bromophenyl)-2(1H)-quinoxalinone], the “cell proliferation inhibiting activity compared with AG1478, Gefitinib and Erlotinib” value ([1]; 3D cell culture step) is reported as “more significant cell proliferation inhibiting activity”, the IC50 ([1]; Mus musculus, 72 h, NIH3T3/EGFR vIII cells, Ultra Low Attachment plate, 3 days, […]-GLO) is reported as 12 nM and the “inhibiting activity against scaffold-independent proliferation capacity” value ([1]; Test Example 3, NIH3T3/EGFR vIII cells) is reported as “exhibited an inhibiting activity”. The “inhibition of proliferation of the NIH3T3/EGFRWT cells” value ([2]; 3D cell culture step, EGF 50 ng/mL in medium) was “inhibited proliferation”, the “inhibiting activity against scaffold-independent proliferation capacity” value ([2]; Test Example 3, NIH3T3/EGFRWT cells, EGF-including medium) was “exhibited an inhibiting activity” and the “inhibiting activity against scaffold-independent proliferation capacity” value [3] was “did not exhibit an inhibiting activity”. For the same compound, the “inhibiting activity against scaffold-independent proliferation capacity” value [4] was “did not exhibit an inhibiting activity”, the “inhibiting activity against scaffold-independent proliferation capacity” value [5] was “did not exhibit an inhibiting activity” and the “Organ weight Heart” value ([6]; 0.098 mg/kg/0.2 mL) was 115.0 mg. For the same compound, the “Organ weight Kidney (Left)” value ([6]; 0.098 mg/kg/0.2 mL) was 139.0 mg, the “Organ weight Kidney (Right)” value ([6]; 0.098 mg/kg/0.2 mL) was 147.0 mg and the “Organ weight Liver” value ([6]; 0.098 mg/kg/0.2 mL) was 1047.0 mg. The “Organ weight Lung” value ([6]; 0.098 mg/kg/0.2 mL) was 160.0 mg, the “Organ weight Spleen” value ([6]; 0.098 mg/kg/0.2 mL) was 78.0 mg and the “Organ weight Thymus” value ([6]; 0.098 mg/kg/0.2 mL) was 67.0 mg. For the same compound, the “Organ weight Heart” value ([6]; 0.195 mg/kg/0.2 mL) was 125.0 mg, the “Organ weight Kidney (Left)” value ([6]; 0.195 mg/kg/0.2 mL) was 175.0 mg and the “Organ weight Kidney (Right)” value ([6]; 0.195 mg/kg/0.2 mL) was 184.0 mg. For the same compound, the “Organ weight Liver” value ([6]; 0.195 mg/kg/0.2 mL) was 1590.0 mg, the “Organ weight Lung” value ([6]; 0.195 mg/kg/0.2 mL) was 169.0 mg and the “Organ weight Spleen” value ([6]; 0.195 mg/kg/0.2 mL) was 121.0 mg. For the same compound, the “Organ weight Thymus” value ([6]; 0.195 mg/kg/0.2 mL) was 83.0 mg, the “Organ weight Heart” value ([6]; 0.39 mg/kg/0.2 mL) was 106.0 mg and the “Organ weight Kidney (Left)” value ([6]; 0.39 mg/kg/0.2 mL) was 157.0 mg. The “Organ weight Kidney (Right)” value ([6]; 0.39 mg/kg/0.2 mL) was 168.0 mg, the “Organ weight Liver” value ([6]; 0.39 mg/kg/0.2 mL) was 1350.0 mg and the “Organ weight Lung” value ([6]; 0.39 mg/kg/0.2 mL) was 160.0 mg. The “Organ weight Spleen” value ([6]; 0.39 mg/kg/0.2 mL) was 95.0 mg, the “Organ weight Thymus” value ([6]; 0.39 mg/kg/0.2 mL) was 74.0 mg and the “Organ weight Heart” value ([6]; 0.78 mg/kg/0.2 mL) was 115.0 mg. The “Organ weight Kidney (Left)” value ([6]; 0.78 mg/kg/0.2 mL) was 163.0 mg, the “Organ weight Kidney (Right)” value ([6]; 0.78 mg/kg/0.2 mL) was 159.0 mg and the “Organ weight Liver” value ([6]; 0.78 mg/kg/0.2 mL) was 1263.0 mg. For the same compound, the “Organ weight Lung” value ([6]; 0.78 mg/kg/0.2 mL) was 167.0 mg, the “Organ weight Spleen” value ([6]; 0.78 mg/kg/0.2 mL) was 116.0 mg and the “Organ weight Thymus” value ([6]; 0.78 mg/kg/0.2 mL) was 78.0 mg. For the same compound, the “Organ weight Heart” value ([6]; 1.56 mg/kg/0.2 mL) was 134.0 mg, the “Organ weight Kidney (Left)” value ([6]; 1.56 mg/kg/0.2 mL) was 162.0 mg and the “Organ weight Kidney (Right)” value ([6]; 1.56 mg/kg/0.2 mL) was 169.0 mg. The “Organ weight Liver” value ([6]; 1.56 mg/kg/0.2 mL) was 1472.0 mg, the “Organ weight Lung” value ([6]; 1.56 mg/kg/0.2 mL) was 178.0 mg and the “Organ weight Spleen” value ([6]; 1.56 mg/kg/0.2 mL) was 103.0 mg. The “Organ weight Thymus” value ([6]; 1.56 mg/kg/0.2 mL) was 85.0 mg, the “Organ weight Heart” value ([6]; 3.125 mg/kg/0.2 mL) was 135.0 mg and the “Organ weight Kidney (Left)” value ([6]; 3.125 mg/kg/0.2 mL) was 193.0 mg. For the same compound, the “Organ weight Kidney (Right)” value ([6]; 3.125 mg/kg/0.2 mL) was 191.0 mg, the “Organ weight Liver” value ([6]; 3.125 mg/kg/0.2 mL) was 1558.0 mg and the “Organ weight Lung” value ([6]; 3.125 mg/kg/0.2 mL) was 179.0 mg. For the same compound, the “Organ weight Spleen” value ([6]; 3.125 mg/kg/0.2 mL) was 150.0 mg, the “Organ weight Thymus” value ([6]; 3.125 mg/kg/0.2 mL) was 99.0 mg and the “Organ weight Heart” value ([6]; 6.25 mg/kg/0.2 mL) was 114.0 mg. The “Organ weight Kidney (Left)” value ([6]; 6.25 mg/kg/0.2 mL) was 167.0 mg, the “Organ weight Kidney (Right)” value ([6]; 6.25 mg/kg/0.2 mL) was 163.0 mg and the “Organ weight Liver” value ([6]; 6.25 mg/kg/0.2 mL) was 1412.0 mg. For the same compound, the “Organ weight Lung” value ([6]; 6.25 mg/kg/0.2 mL) was 178.0 mg, the “Organ weight Spleen” value ([6]; 6.25 mg/kg/0.2 mL) was 104.0 mg and the “Organ weight Thymus” value ([6]; 6.25 mg/kg/0.2 mL) was 68.0 mg. For the same compound, the “Organ weight Heart” value ([6]; 12.5 mg/kg/0.2 mL) was 107.0 mg, the “Organ weight Kidney (Left)” value ([6]; 12.5 mg/kg/0.2 mL) was 161.0 mg and the “Organ weight Kidney (Right)” value ([6]; 12.5 mg/kg/0.2 mL) was 163.0 mg. For the same compound, the “Organ weight Liver” value ([6]; 12.5 mg/kg/0.2 mL) was 1120.0 mg, the “Organ weight Lung” value ([6]; 12.5 mg/kg/0.2 mL) was 159.0 mg and the “Organ weight Spleen” value ([6]; 12.5 mg/kg/0.2 mL) was 98.0 mg. For the same compound, the “Organ weight Thymus” value ([6]; 12.5 mg/kg/0.2 mL) was 63.0 mg, the “Organ weight Heart” value ([6]; 25 mg/kg/0.2 mL) was 111.0 mg and the “Organ weight Kidney (Left)” value ([6]; 25 mg/kg/0.2 mL) was 157.0 mg. The “Organ weight Kidney (Right)” value ([6]; 25 mg/kg/0.2 mL) was 170.0 mg, the “Organ weight Liver” value ([6]; 25 mg/kg/0.2 mL) was 1316.0 mg and the “Organ weight Lung” value ([6]; 25 mg/kg/0.2 mL) was 147.0 mg. For the same compound, the “Organ weight Spleen” value ([6]; 25 mg/kg/0.2 mL) was 98.0 mg, the “Organ weight Thymus” value ([6]; 25 mg/kg/0.2 mL) was 92.0 mg and the “Organ weight Heart” value ([6]; 50 mg/kg/0.4 mL) was 120.0 mg. For the same compound, the “Organ weight Kidney (Left)” value ([6]; 50 mg/kg/0.4 mL) was 166.0 mg, the “Organ weight Kidney (Right)” value ([6]; 50 mg/kg/0.4 mL) was 173.0 mg and the “Organ weight Liver” value ([6]; 50 mg/kg/0.4 mL) was 1747.0 mg. For the same compound, the “Organ weight Lung” value ([6]; 50 mg/kg/0.4 mL) was 168.0 mg, the “Organ weight Spleen” value ([6]; 50 mg/kg/0.4 mL) was 132.0 mg and the “Organ weight Thymus” value ([6]; 50 mg/kg/0.4 mL) was 69.0 mg. The toxicity ([6]; 0.098 to 50 mg/kg, observed 2 weeks) was “no significant toxicity”, the “Organ weight Heart” value ([7]; 0.39 mg/kg/0.2 mL) was 121.0 mg and the “Organ weight Kidney (Right)” value ([7]; 0.39 mg/kg/0.2 mL) was 168.0 mg. For the same compound, the “Organ weight Liver” value ([7]; 0.39 mg/kg/0.2 mL) was 1325.0 mg, the “Organ weight Lung” value ([7]; 0.39 mg/kg/0.2 mL) was 173.0 mg and the “Organ weight Spleen” value ([7]; 0.39 mg/kg/0.2 mL) was 110.0 mg. For the same compound, the “Organ weight Thymus” value ([7]; 0.39 mg/kg/0.2 mL) was 83.0 mg, the “Organ weight Heart” value ([7]; 0.78 mg/kg/0.2 mL) was 116.0 mg and the “Organ weight Kidney (Left)” value ([7]; 0.78 mg/kg/0.2 mL) was 165.0 mg. For the same compound, the “Organ weight Kidney (Right)” value ([7]; 0.78 mg/kg/0.2 mL) was 174.0 mg, the “Organ weight Liver” value ([7]; 0.78 mg/kg/0.2 mL) was 1423.0 mg and the “Organ weight Lung” value ([7]; 0.78 mg/kg/0.2 mL) was 164.0 mg. For the same compound, the “Organ weight Spleen” value ([7]; 0.78 mg/kg/0.2 mL) was 115.0 mg, the “Organ weight Thymus” value ([7]; 0.78 mg/kg/0.2 mL) was 112.0 mg and the “Organ weight Heart” value ([7]; 1.56 mg/kg/0.2 mL) was 121.0 mg. For the same compound, the “Organ weight Kidney (Left)” value ([7]; 1.56 mg/kg/0.2 mL) was 170.0 mg, the “Organ weight Kidney (Right)” value ([7]; 1.56 mg/kg/0.2 mL) was 167.0 mg and the “Organ weight Liver” value ([7]; 1.56 mg/kg/0.2 mL) was 1471.0 mg. For the same compound, the “Organ weight Lung” value ([7]; 1.56 mg/kg/0.2 mL) was 170.0 mg, the “Organ weight Spleen” value ([7]; 1.56 mg/kg/0.2 mL) was 104.0 mg and the “Organ weight Thymus” value ([7]; 1.56 mg/kg/0.2 mL) was 56.0 mg. The toxicity ([7]; observed 2 weeks) was “no significant toxicity”, the solubility [8] was “poor solubility” and the “tumor weight versus negative control group” value ([9]; 30 mg/kg intraperitoneally once a day, 17 days after transplantation, t<0.05) was “significantly different”. The “mouse body weight (weight loss)” value [9, 11] was “weight loss was not observed”, the toxicity [9, 11] was “no toxicity” and the “tumor proliferation inhibiting activity” value [9, 11] was “exhibited the tumor proliferation inhibiting activity”. For the same compound, the “tumor proliferation inhibiting activity compared with Gefitinib” value ([9]; 30 mg/kg intraperitoneally vs Gefitinib 100 mg/kg orally) was “comparable” and the “inhibition of mDia-mediated actin assembly” value [10] was “inhibit mDia-mediated actin assembly in vitro”.
